In patent publication US20260217708A1, “FUSED BENZAZEPINE DERIVATIVES FOR USE IN THE TREATMENT OF CANCER AND EPILEPSY” (UCB BIOPHARMA SRL, priority 2023, published 2026):

Experiments:
[1] = molecular target: T1, system Xc^− (Homo sapiens, UniProt Q9UPY5); test: Cystine-induced glutamate release assay; format: cell-based; design: endogenous in cells; host or cells: H4 cells; conditions: H4 cells, sodium-free HEPES buffer, 50 μM L-Cystine, 2 hours, Amplex Red glutamate readout; read-out: pIC50 Cystine-induced glutamate release assay (converted)
T1 sequence (Q9UPY5 1-501): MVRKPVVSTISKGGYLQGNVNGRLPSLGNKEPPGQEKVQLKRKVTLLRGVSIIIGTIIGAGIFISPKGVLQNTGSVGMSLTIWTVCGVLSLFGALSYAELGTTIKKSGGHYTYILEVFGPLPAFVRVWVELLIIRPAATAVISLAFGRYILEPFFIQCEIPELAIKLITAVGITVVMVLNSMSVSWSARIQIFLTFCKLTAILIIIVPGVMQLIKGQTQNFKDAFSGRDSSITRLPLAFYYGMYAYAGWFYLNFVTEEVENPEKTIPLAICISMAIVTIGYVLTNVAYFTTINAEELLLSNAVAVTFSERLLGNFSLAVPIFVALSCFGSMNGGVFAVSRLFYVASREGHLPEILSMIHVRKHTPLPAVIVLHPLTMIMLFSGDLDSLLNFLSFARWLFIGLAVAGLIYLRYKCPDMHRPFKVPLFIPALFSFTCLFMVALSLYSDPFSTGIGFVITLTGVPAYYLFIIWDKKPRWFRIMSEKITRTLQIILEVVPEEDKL
T1 sequence (P08195 1-529 partner): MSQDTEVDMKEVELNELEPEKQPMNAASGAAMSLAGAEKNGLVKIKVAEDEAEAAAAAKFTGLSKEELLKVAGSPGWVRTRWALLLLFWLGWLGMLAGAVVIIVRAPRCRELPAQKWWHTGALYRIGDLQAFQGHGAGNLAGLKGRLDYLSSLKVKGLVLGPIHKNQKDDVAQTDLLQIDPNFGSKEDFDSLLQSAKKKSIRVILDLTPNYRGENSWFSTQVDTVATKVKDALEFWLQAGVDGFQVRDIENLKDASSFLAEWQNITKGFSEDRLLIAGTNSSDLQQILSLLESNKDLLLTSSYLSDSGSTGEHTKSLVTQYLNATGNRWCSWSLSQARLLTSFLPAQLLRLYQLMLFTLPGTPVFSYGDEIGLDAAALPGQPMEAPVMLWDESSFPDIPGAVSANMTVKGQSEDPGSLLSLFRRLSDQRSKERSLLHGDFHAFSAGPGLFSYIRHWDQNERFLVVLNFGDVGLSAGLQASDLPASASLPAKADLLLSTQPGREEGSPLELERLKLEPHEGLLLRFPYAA
Source text: (§1) The effect of compounds of Formula (I) on the system Xc^− functionality was examined in two independent cell assays: (i) measurement of cystine-induced glutamate release; and (ii) measurement of [^14C]L-Cystine uptake.
(§2) As described above, System Xc^−, also known as the cystine/glutamate antiporter, is an amino acid transporter that mediates the extrusion of intracellular L-glutamate outside the cell and the uptake of extracellular L-cystine into the cell.
(§3) By measuring respectively, the concentration of glutamate released outside the cell and the L-cystine uptaken in the cell, with increasing concentrations of compounds of formula (I) according to the present invention, the efficacy of said compounds to inhibit the System Xc^− function can be evaluated.
(§4) The efficacy of the compounds to inhibit system Xc^− is represented by measuring the IC50 which corresponds to the concentration of compound necessary to inhibit 50% of the signals from the two control groups; DMSO 1% and Erastin 50 μM in the respective assays. pIC50 values correspond to −log of the IC50 in Molar.
Measurement of cystine-induced glutamate release indicates levels of glutamate (outside of the cell) that are dependent on system Xc^− antiporter function. Upon the addition of L-Cystine to H4 cells, intracellular glutamate is counter-transported and exported in the supernatant.
In this assay, the medium is devoid of sodium to prevent the transport of glutamate by sodium-dependent excitatory amino acid transporters (EAATs). H4 cells were plated on 384-well culture plate at 1×10^4 cells/well in Dulbecco's Modified Eagle Medium (DMEM) with L-glutamine, penicillin/streptomycin and 10% fetal bovine serum (all from ThermoFisher Scientific) and incubated in a humidified CO2 incubator at 37° C. After 2 days, cells were washed 4 times with prewarmed sodium-free HEPES buffer (contents in mM: HEPES 10, KCl 5.4, CaCl2 2.5, MgCl2 1, KH2PO4 0.4, D-Glucose 5, Choline chloride 140), pH 7.4. Glutamate release was induced by addition of 50 μM of L-Cystine (Sigma-Aldrich), together with a test compound of Formula (I) at 1% final DMSO concentration. After 2 hours of incubation in the culture incubator, supernatants were transferred to a low-binding polypropylene 384-well plate to determine L-glutamate concentration using Amplex™ Red Glutamic Acid Assay Kit (ThermoFisher Scientific). Briefly, 10 μL of Amplex™ Red working solution was added to 10 μL of the supernatant, then the mixture was incubated for 30 min at 37° C. Fluorescence intensity was measured by EnVision microplate reader (PerkinElmer).

[2] = molecular target: T1, system Xc^−; test: [^14C]L-Cystine uptake assay; format: cell-based; design: endogenous in cells; host or cells: H4 cells; conditions: H4 cells, sodium-free HEPES buffer, 0.5 μM L-[14C]Cystine and 4.5 μM L-Cystine, 1 hour at 37° C.; read-out: pIC50 [^14C] L-Cystine uptake assay (converted)
Source text: as §1, §2, §3, §4
In this assay, the medium is devoid of sodium to prevent the transport of glutamate by sodium-dependent excitatory amino acid transporters (EAATs). H4 cells were plated on a 96-well CytoStar-T scintillating microplate (PerkinElmer) at 5×10^4 cells/well in the medium described above. After 1 day, cells were washed one time with the sodium-free HEPES buffer and preincubated with test compounds of Formula (I) (1% final DMSO) for 15 min. Uptake was initiated by adding 0.5 μM L-[1,2, 1′,2′-^14C]Cystine (0.02 mCi/mL, PerkinElmer, Waltham, US) and 4.5 μM L-Cystine (Sigma-Aldrich). After 1 hour at 37° C., plates were counted in a MicroBeta^2 microplate counter (PerkinElmer).

SMILES | IC50 [1] | IC50 [2]
COc1cc2c(c(F)n1)-c1cccnc1CC(=O)N2CC(=O)Nc1ccc(C(F)(F)F)cc1 [#124, 2-(3-fluoro-5-methoxy-9-oxo-4,8,12-triazatricyclo[9.4.0.0^2,7]pentadeca-1(11),2,4,6,12,14-hexaen-8-yl)-N-[4-(trifluoromethyl)phenyl]acetamide] | 39.8 to 100 nM | 15.8 to 39.8 nM
Cc1cc2c(c(=O)n1C)-c1sccc1C(C)C(=O)N2CC(=O)Nc1ccc(C(F)F)cc1 (stereo not drawn) [#361, N-[4-(difluoromethyl)phenyl]-2-(7,12,13-trimethyl-8,14-dioxo-3-thia-9,13-diazatricyclo[8.4.0.0^2,6]tetradeca-1(10),2(6),4,11-tetraen-9-yl)acetamide] | 15.8 to 39.8 nM | < 15.8 nM
Cc1cc2c(c(F)n1)-c1cccnc1[C@@H](C)C(=O)N2CC(=O)Nc1ccc(C(C)(F)F)cc1 [#149, N-[4-(1,1-difluoroethyl)phenyl]-2-[(10R)-3-fluoro-5,10-dimethyl-9-oxo-4,8,12-triazatricyclo[9.4.0.0^2,7]pentadeca-1(11),2(7),3,5,12,14-hexaen-8-yl]acetamide] | 15.8 to 39.8 nM | < 15.8 nM
Cc1cc2c(c(Cl)n1)-c1ccnnc1C(C)C(=O)N2CC(=O)Nc1ccc(C(F)(F)F)cc1 (stereo not drawn) [#173, 2-(3-chloro-5,10-dimethyl-9-oxo-4,8,12,13-tetrazatricyclo[9.4.0.0^2,7]pentadeca-1(11),2(7),3,5,12,14-hexaen-8-yl)-N-[4-(trifluoromethyl)phenyl]acetamide] | 15.8 to 39.8 nM | < 15.8 nM
Cc1cc2c(c(F)n1)-c1cccnc1[C@@H](C)C(=O)N2CC(=O)Nc1ccc(C2(F)CC2)cc1 [#246, N-[4-(1-fluorocyclopropyl)phenyl]-2-[(10R)-3-fluoro-5,10-dimethyl-9-oxo-4,8,12-triazatricyclo[9.4.0.0^2,7]pentadeca-1(11),2(7),3,5,12,14-hexaen-8-yl]acetamide] | < 15.8 nM | < 15.8 nM
Cc1cc2c(c(F)n1)-c1cccnc1[C@@H](C)C(=O)N2CC(=O)Nc1ccc2c(Cl)nccc2c1 (single isomer, unassigned) [#240] | 15.8 to 39.8 nM | 39.8 to 100 nM
Cc1cc2c(c(F)n1)-c1cccnc1[C@@H](C)C(=O)N2CC(=O)Nc1ccc2c(cnn2C(F)F)c1 [#148, N-[1-(difluoromethyl)indazol-5-yl]-2-[(10R)-3-fluoro-5,10-dimethyl-9-oxo-4,8,12-triazatricyclo[9.4.0.0^2,7]pentadeca-1(11),2(7),3,5,12,14-hexaen-8-yl]acetamide] | 39.8 to 100 nM | 15.8 to 39.8 nM
Cc1cc2c(c(O)n1)-c1cccnc1C(C)C(=O)N2CC(=O)Nc1ccc(C(F)(F)F)cc1 (single isomer, unassigned) [#161, 2-(3-hydroxy-5,10-dimethyl-9-oxo-4,8,12-triazatricyclo[9.4.0.0^2,7]pentadeca-1(11),2(7),3,5,12,14-hexaen-8-yl)-N-[4-(trifluoromethyl)phenyl]acetamide] | 15.8 to 39.8 nM | 15.8 to 39.8 nM
Cc1cc2c(c(F)n1)-c1cccnc1[C@@H](C)C(=O)N2CC(=O)Nc1ccc2c(c1)OC(F)(F)O2 [#238, N-(2,2-difluoro-1,3-benzodioxol-5-yl)-2-[(10R)-3-fluoro-5,10-dimethyl-9-oxo-4,8,12-triazatricyclo[9.4.0.0^2,7]pentadeca-1(15),2,4,6,11,13-hexaen-8-yl]acetamide] | 39.8 to 100 nM | 39.8 to 100 nM
Cc1cc2c(n(C)c1=O)-c1ccccc1N(C)C(=O)N2CC(=O)Nc1ccc(Cl)c(F)c1 [#166, N-(4-chloro-3-fluoro-phenyl)-2-(1,3,7-trimethyl-2,6-dioxo-pyrido[3,2-d][1,3]benzodiazepin-5-yl)acetamide] | 15.8 to 39.8 nM | 15.8 to 39.8 nM
C[C@@H]1C(=O)N(CC(=O)Nc2ccc(C(F)F)cc2)c2cc(N3CC[C@@H](F)C3)nc(F)c2-c2cccnc21 (single isomer, unassigned) [#277, N-[4-(difluoromethyl)phenyl]-2-[3-fluoro-5-[3-fluoropyrrolidin-1-yl]-10-methyl-9-oxo-4,8,12-triazatricyclo[9.4.0.0^2,7]pentadeca-1(15),2,4,6,11,13-hexaen-8-yl]acetamide] | 15.8 to 39.8 nM | 15.8 to 39.8 nM
Cc1cc2c(c(F)n1)-c1cncnc1C(C)C(=O)N2CC(=O)Nc1ccc(Cl)c(F)c1 (single isomer, unassigned) [#217, Enantiomer (8S) or (8R) of N-(4-chloro-3-fluoro-phenyl)-2-[15-fluoro-8,13-dimethyl-9-oxo-4,6,10,14-tetrazatricyclo[9.4.0.0^2,7]pentadeca-1(15),2,4,6,11,13-hexaen-10-yl]acetamide] | < 15.8 nM | < 15.8 nM
Cc1cc2c(c(Cl)n1)-c1cc(F)cnc1C(C)C(=O)N2CC(=O)Nc1ccc(C(F)(F)F)cn1 (single isomer, unassigned) [#424, 2-(3-chloro-14-fluoro-5,10-dimethyl-9-oxo-4,8,12-triazatricyclo[9.4.0.0^2,7]pentadeca-1(11),2,4,6,12,14-hexaen-8-yl)-N-[5-(trifluoromethyl)-2-pyridyl]acetamide] | 15.8 to 39.8 nM | 15.8 to 39.8 nM
CC1C(=O)N(CC(=O)Nc2ccc(C(F)F)cc2)c2cc(N3CC4(C3)CC(F)(F)C4)nc(F)c2-c2cccnc21 (single isomer, unassigned) [#281, 2-[5-(6,6-difluoro-2-azaspiro[3.3]heptan-2-yl)-3-fluoro-10-methyl-9-oxo-4,8,12-triazatricyclo[9.4.0.0^2,7]pentadeca-1(15),2,4,6,11,13-hexaen-8-yl]-N-[4-(difluoromethyl)phenyl]acetamide] | 39.8 to 100 nM | 39.8 to 100 nM
Cc1cc2c(c(=O)n1C)-c1ccccc1C(C)C(=O)N2CC(=O)Nc1ccc(Cl)c(F)c1 (single isomer, unassigned) [#219, Enantiomer (7S) or (7R) of N-(4-chloro-3-fluoro-phenyl)-2-[2,3,7-trimethyl-1,6-dioxo-7H-pyrido[4,3-d][3]benzazepin-5-yl]acetamide] | < 15.8 nM | < 15.8 nM
